Data taken from ChEMBL document CHEMBL4715697, “Synthesis and biological activity of benzamide DNA minor groove binders” (2016).

Tests used:
Format in all cases: functional
HCC 2998 = experiment: Growth inhibition of human HCC 2998 cells assessed as cell growth at 0.01 uM incubated for 48 hrs by sulforhodamine B assay relative to control; settings: read-out: Activity
SNB-19 [1] = experiment: Growth inhibition of human SNB-19 cells assessed as cell growth at 0.01 uM incubated for 48 hrs by sulforhodamine B assay relative to control; settings: read-out: Activity
SK-MEL-2 [2] = experiment: Growth inhibition of human SK-MEL-2 cells assessed as cell growth at 0.01 uM incubated for 48 hrs by sulforhodamine B assay relative to control; settings: read-out: Activity
786-0 = experiment: Growth inhibition of human 786-0 cells assessed as cell growth at 0.01 uM incubated for 48 hrs by sulforhodamine B assay relative to control; settings: read-out: Activity
RXF 393 [3] = experiment: Growth inhibition of human RXF 393 cells assessed as cell growth at 0.01 uM incubated for 48 hrs by sulforhodamine B assay relative to control; settings: read-out: Activity
SN12C [4] = experiment: Growth inhibition of human SN12C cells assessed as cell growth at 0.01 uM incubated for 48 hrs by sulforhodamine B assay relative to control; settings: read-out: Activity
SF-539 = experiment: Growth inhibition of human SF-539 cells assessed as cell growth at 0.1 uM incubated for 48 hrs by sulforhodamine B assay relative to control; settings: read-out: Activity
UACC-257 = experiment: Growth inhibition of human UACC-257 cells assessed as cell growth at 0.1 uM incubated for 48 hrs by sulforhodamine B assay relative to control; settings: read-out: Activity
OVCAR-3 [5] = experiment: Growth inhibition of human OVCAR-3 cells assessed as cell growth at 0.1 uM incubated for 48 hrs by sulforhodamine B assay relative to control; settings: read-out: Activity
RXF 393 [6] = experiment: Growth inhibition of human RXF 393 cells assessed as cell growth at 0.1 uM incubated for 48 hrs by sulforhodamine B assay relative to control; settings: read-out: Activity
MCF7 = experiment: Growth inhibition of human MCF7 cells assessed as cell growth at 0.1 uM incubated for 48 hrs by sulforhodamine B assay relative to control; settings: read-out: Activity
MDA-MB-231 = experiment: Growth inhibition of human MDA-MB-231 cells assessed as cell growth at 0.1 uM incubated for 48 hrs by sulforhodamine B assay relative to control; settings: read-out: Activity
T47D = experiment: Growth inhibition of human T47D cells assessed as cell growth at 0.1 uM incubated for 48 hrs by sulforhodamine B assay relative to control; settings: read-out: Activity
HL-60(TB) [7] = experiment: Growth inhibition of human HL-60(TB) cells assessed as cell growth at 1 uM incubated for 48 hrs by sulforhodamine B assay relative to control; settings: read-out: Activity
HOP-62 = experiment: Growth inhibition of human HOP-62 cells assessed as cell growth at 1 uM incubated for 48 hrs by sulforhodamine B assay relative to control; settings: read-out: Activity
HT-29 = experiment: Growth inhibition of human HT-29 cells assessed as cell growth at 1 uM incubated for 48 hrs by sulforhodamine B assay relative to control; settings: read-out: Activity
U-251 = experiment: Growth inhibition of human U-251 cells assessed as cell growth at 1 uM incubated for 48 hrs by sulforhodamine B assay relative to control; settings: read-out: Activity
SK-MEL-28 = experiment: Growth inhibition of human SK-MEL-28 cells assessed as cell growth at 1 uM incubated for 48 hrs by sulforhodamine B assay relative to control; settings: read-out: Activity
SK-MEL-5 = experiment: Growth inhibition of human SK-MEL-5 cells assessed as cell growth at 1 uM incubated for 48 hrs by sulforhodamine B assay relative to control; settings: read-out: Activity
OVCAR-3 [8] = experiment: Growth inhibition of human OVCAR-3 cells assessed as cell growth at 1 uM incubated for 48 hrs by sulforhodamine B assay relative to control; settings: read-out: Activity
CAKI-1 [9] = experiment: Growth inhibition of human CAKI-1 cells assessed as cell growth at 1 uM incubated for 48 hrs by sulforhodamine B assay relative to control; settings: read-out: Activity
DU-145 [10] = experiment: Growth inhibition of human DU-145 cells assessed as cell growth at 1 uM incubated for 48 hrs by sulforhodamine B assay relative to control; settings: read-out: Activity
HL-60(TB) [11] = experiment: Growth inhibition of human HL-60(TB) cells assessed as cell growth at 100 uM incubated for 48 hrs by sulforhodamine B assay relative to control; settings: read-out: Activity
SF-268 = experiment: Growth inhibition of human SF-268 cells assessed as cell growth at 100 uM incubated for 48 hrs by sulforhodamine B assay relative to control; settings: read-out: Activity
SK-MEL-2 [12] = experiment: Growth inhibition of human SK-MEL-2 cells assessed as cell growth at 100 uM incubated for 48 hrs by sulforhodamine B assay relative to control; settings: read-out: Activity
UACC-62 = experiment: Growth inhibition of human UACC-62 cells assessed as cell growth at 100 uM incubated for 48 hrs by sulforhodamine B assay relative to control; settings: read-out: Activity
OVCAR-8 = experiment: Growth inhibition of human OVCAR-8 cells assessed as cell growth at 100 uM incubated for 48 hrs by sulforhodamine B assay relative to control; settings: read-out: Activity
CAKI-1 [13] = experiment: Growth inhibition of human CAKI-1 cells assessed as cell growth at 100 uM incubated for 48 hrs by sulforhodamine B assay relative to control; settings: read-out: Activity
RXF 393 [14] = experiment: Growth inhibition of human RXF 393 cells assessed as cell growth at 100 uM incubated for 48 hrs by sulforhodamine B assay relative to control; settings: read-out: Activity
DU-145 [15] = experiment: Growth inhibition of human DU-145 cells assessed as cell growth at 100 uM incubated for 48 hrs by sulforhodamine B assay relative to control; settings: read-out: Activity
RPMI-8226 = experiment: Growth inhibition of human RPMI-8226 cells incubated for 48 hrs by sulforhodamine B assay
A549 = experiment: Growth inhibition of human A549/ATCC cells incubated for 48 hrs by sulforhodamine B assay
SNB-19 [16] = experiment: Growth inhibition of human SNB-19 cells incubated for 48 hrs by sulforhodamine B assay
SN12C [17] = experiment: Growth inhibition of human SN12C cells incubated for 48 hrs by sulforhodamine B assay
DU-145 [18] = experiment: Growth inhibition of human DU-145 cells incubated for 48 hrs by sulforhodamine B assay
Hs-578T = experiment: Growth inhibition of human Hs-578T cells incubated for 48 hrs by sulforhodamine B assay
[19] = read-out: LC50 (the source's name)
[20] = read-out: pLC50 (the source's name) (converted)

CC(=O)Nc1cc(CCl)cc(NC(=O)c2ccc(C(=O)Nc3cccc(NC(=O)CCCN(C)C)c3)cc2)c1
94%: growth at 0.1 µM (RXF 393 [6]) | growth at 100 µM (DU-145 [15])
84%: growth at 100 µM (UACC-62)
99%: growth at 1 µM (HL-60(TB) [7])
108%: growth at 0.1 µM (OVCAR-3 [5])
88%: growth at 100 µM (SF-268)
> 100 µM: GI50 (RPMI-8226; read-out: GI50) | CC50 (RPMI-8226; [19]) | TGI (RPMI-8226; read-out: TGI) | GI50 (RPMI-8226; read-out: pGI50 (converted)) | CC50 (RPMI-8226; [20]) | TGI (RPMI-8226; read-out: pTGI) | GI50 (A549; read-out: GI50) | CC50 (A549; [19]) | TGI (A549; read-out: TGI) | GI50 (A549; read-out: pGI50 (converted)) | CC50 (A549; [20]) | TGI (A549; read-out: pTGI) | GI50 (SNB-19 [16]; read-out: GI50) | CC50 (SNB-19 [16]; [19]) | TGI (SNB-19 [16]; read-out: TGI) | GI50 (SNB-19 [16]; read-out: pGI50 (converted)) | CC50 (SNB-19 [16]; [20]) | TGI (SNB-19 [16]; read-out: pTGI) | GI50 (SN12C [17]; read-out: GI50) | CC50 (SN12C [17]; [19]) | TGI (SN12C [17]; read-out: TGI) | GI50 (SN12C [17]; read-out: pGI50 (converted)) | CC50 (SN12C [17]; [20]) | TGI (SN12C [17]; read-out: pTGI) | GI50 (DU-145 [18]; read-out: GI50) | CC50 (DU-145 [18]; [19]) | TGI (DU-145 [18]; read-out: TGI) | GI50 (DU-145 [18]; read-out: pGI50 (converted)) | CC50 (DU-145 [18]; [20]) | TGI (DU-145 [18]; read-out: pTGI) | GI50 (Hs-578T; read-out: GI50) | CC50 (Hs-578T; [19]) | TGI (Hs-578T; read-out: TGI) | GI50 (Hs-578T; read-out: pGI50 (converted)) | CC50 (Hs-578T; [20]) | TGI (Hs-578T; read-out: pTGI)
106%: growth at 0.01 µM (SNB-19 [1]) | growth at 0.01 µM (786-0) | growth at 0.1 µM (MDA-MB-231) | growth at 1 µM (DU-145 [10])
101%: growth at 1 µM (HT-29)
107%: growth at 0.01 µM (SK-MEL-2 [2])
103%: growth at 0.1 µM (SF-539) | growth at 0.1 µM (T47D)
93%: growth at 0.1 µM (UACC-257) | growth at 1 µM (U-251) | growth at 1 µM (SK-MEL-5)
95%: growth at 1 µM (CAKI-1 [9])
96%: growth at 0.01 µM (RXF 393 [3]) | growth at 1 µM (SK-MEL-28) | growth at 100 µM (OVCAR-8) | growth at 100 µM (RXF 393 [14])
109%: growth at 1 µM (OVCAR-3 [8])
116%: growth at 100 µM (SK-MEL-2 [12])
102%: growth at 0.01 µM (HCC 2998) | growth at 1 µM (HOP-62)
90%: growth at 100 µM (HL-60(TB) [11])
104%: growth at 0.01 µM (SN12C [4])
87%: growth at 0.1 µM (MCF7)
100%: growth at 100 µM (CAKI-1 [13])
